US9084734B2, “Peptide personal care compositions and methods for their use” (Danisco US Inc., priority 2005, dated 2015)
Bridge positions count the residues as written; N and C are the ends. Peptide text beside a SMILES is read from it.

Experiments:
[1] = test system: human skin; test: Repeat insult patch testing (RIPT) on human skin; assay type: in vivo; conditions: 0.5% (w/v) in deionized water/butylene glycol; approximately 0.2 mL; 200 human volunteers
Experimental: In this Example, experiments conducted to determine the patch test result for anti-VEGF peptides are described. Samples of the aVEGF peptide CK37281 dosed at 0.5% (w/v) were formulated in a base formulation containing deionized water/butylene glycol. Approximately 0.2 mL of the formulation was applied to 200 human volunteers in a repeated insult patch test according to procedures designed by Clinical Research Laboratories, Inc. (Piscataway, N.J.).

[2] = test system: human umbilical vein endothelial cells (HUVEC); test: In vitro HUVEC proliferation assay (MTS) for hVEGF inhibitory peptides; assay type: cell-based; conditions: 10 ng/ml VEGF, 48 hrs
Experimental: FIG. 12 provides a graph showing HUVEC results for designated peptides.
In this Example, experiments conducted to determine the anti-proliferative activity of anti-VEG peptides are described. The antiproliferative activity of VEGF inhibitory peptides was determined using human umbilical vein endothelial cells (HUVEC) as follows. An early passage (less than six) of HUVEC was seeded in 96-well plates at 5000 cells per well and starved for 18 hrs in 200 μl EBM medium (Cambrex) without growth factors and supplemented with 0.5% FBS, at 37° C. with 5% CO2. The medium was replaced with 180 μl of growth medium containing EBM medium with 5% fetal bovine serum and 1% DMSO. Then, 20 μl of VEGF preincubated for one hour with varying peptide concentrations (the final DMSO concentration of all the wells was 1%) were added to the wells for a final VEGF concentration of 10 ng/ml. Human VEGF antibody (R & D Systems) was used as a positive control. Cells with 0.31 to 20 ng/ml concentrations of VEGF alone in the growth medium were used to construct a standard growth curve. The cells were further incubated for 48 hrs, and the cell proliferation was measured using an MTS assay (CellTiter 96 Aqueous One Solution Cell Proliferation Assay Kit; Promega). Then, 40 μl of the MTS tetrazolium solution was added to each well and after 3 and 4 hours incubation, the plates were read at 490 nm. […]

[3] = target: T1, Human VEGF165 (Homo sapiens, UniProt P15692); test: BIAcore binding analysis of VEGF-binding peptides (surface plasmon resonance); conditions: two state reaction model with conformation change; 25° C.
T1 construct: purchased Biosource
T1 sequence (P15692 27-191 isoform P15692-4): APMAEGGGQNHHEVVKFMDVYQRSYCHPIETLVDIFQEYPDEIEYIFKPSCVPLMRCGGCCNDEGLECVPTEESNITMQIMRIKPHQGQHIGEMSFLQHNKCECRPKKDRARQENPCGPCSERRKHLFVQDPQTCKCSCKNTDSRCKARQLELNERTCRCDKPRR
Experimental: FIG. 3 provides results of a BIACORE binding analysis of VEGF binding peptides. Binding curves were obtained as described in the Examples. Data were fit to a two state reaction model with conformation change: Analyte (A) binds to ligand (B) to form complex AB.
In this Example, experiments conducted to assess the affinities of the peptides for VEGF are described. Affinities of the peptides for VEGF were measured using a BIAcore™-3000 surface plasmon resonance system (Biacore). A CM5 sensor chip was conditioned with 50 mM NaOH, 0.1% HCl, 0.1% SDS, and 0.08% H3PO4, and activated for covalent coupling of VEGF using N-ethyl-N′-(3-dimethylaminopropyl)-carbodiimide hydrochloride (EDC) and N-hydroxysuccinimide (NHS) according to the supplier's instructions (Biacore). Human VEGF165 (Biosource) was diluted to 5 μg/ml in 20 mM sodium acetate, pH 4.8 and injected at a flow rate of 2 μl/min to achieve approximately 1000 to 6000 response units (RU) of coupled protein. TNF-alpha (human TNF-alpha, Biosource, Int., Camarillo, Calif.) was similarly coupled to the CM5 sensor chip to approximately 850 to 3500 RU in the reference lane. A solution of 1 M ethanolamine was injected as a blocking agent. In some experiments, an additional solution of EDC and NHS were injected to improve baseline stability and a solution of 1 M ethanolamine injected as a blocking agent. The reference lane was activated with EDC and NHS and blocked with ethanolamine.
Peptides were synthesized using standard FMOC chemistry, purified by reverse phase HPLC to >95% purity (SynPep), and stored at 10 mg/mL in DMSO. For kinetic measurements, twofold serial diluted peptides in HBS-EP buffer, 0.01 M HEPES pH 7.4, 0.15 M NaCl, 3 mM EDTA, 0.005% Surfactant P20 (Biacore), were injected at 25° C. at a flow rate of 20 μL/min. Two-fold serial diluted DMSO samples and buffer samples were also injected for background subtraction. Kinetic parameters were calculated using BIAevaluation 3.1 software.

ka2 [3] | kd1 [3] | Kd [3] | Structure (SMILES) | dermal irritation or sensitization [1] | IC50 [2]
1.5 e-3 s^−1 | 0.0122 s⁻¹ |  | CC(C)C[C@@H]1NC(=O)[C@H](CC(N)=O)NC(=O)[C@H](Cc2ccc(O)cc2)NC(=O)[C@@H](NC(=O)[C@H](C)N)CSSC[C@@H](C(=O)NCC(=O)NCC(=O)NCC(=O)O)NC(=O)[C@H]([C@@H](C)O)NC(=O)[C@H](Cc2c[nH]c3ccccc23)NC(=O)CNC(=O)[C@H](Cc2ccc(O)cc2)NC1=O [CK37281, YNLYGWT] | no dermal irritation or sensitization | micromolar range
6.34 e-3 s^−1 | 0.318 s⁻¹ | 4.9 µM | CC(C)C[C@@H]1NC(=O)[C@H](CC(N)=O)NC(=O)[C@@H](NC(=O)[C@H](C)N)CSSC[C@@H](C(=O)NCC(=O)NCC(=O)NCC(=O)O)NC(=O)[C@H](Cc2c[nH]c3ccccc23)NC(=O)[C@H](Cc2ccccc2)NC(=O)[C@H](Cc2c[nH]cn2)NC(=O)[C@@H]2CCCN2C(=O)[C@H](Cc2c[nH]c3ccccc23)NC1=O [CK37283] (H-ACNLWPHFWCGGG-OH; disulfide 2-10; N-terminus and C-terminus assumed) |  | micromolar range
